# Read-outs that look alike come from different tables or passages of the source. Where a SMILES comes first, the peptide text is derived from it. Where no end group is shown, it is not given here. [ ]: non-standard residue; d: D form. pY = N[C@@H](Cc1ccc(OP(=O)(O)O)cc1)C(=O)O
# Tests used:
# Caco-2 cells = experiment: Peptidase degradation and dephosphorylation during Caco-2 transport (fragment screening by LC-TOF/MS); format: in vitro ADME; details: for Resistance to peptidase degradation in Caco-2 cells: 1 mM peptide, 60 min, fragments screened by m/z, no other peptide fragments found (data not shown)
# Protocol: Cell culture and transport experiment were performed as described[24],[45]. Caco-2 cells were cultured using BD BioCoat Intestinal Epithelium Differentiation Environment kits (BD Bioscience, Franklin Lakes, NJ, USA). Caco-2 cells grown in 0.9 cm^2 Falcon cell culture inserts (polyethylene terephthalate membranes; pore size, 1.0 μm; Becton Dickinson and Co.) with a type I collagen-coated membrane (Cellmatrix type IA Collagen Gel Culturing Kit; Nitta Gelatin Inc., Osaka, Japan) were gently rinsed twice with Hanks balanced salt solution (HBSS; 137 mM NaCl, 5 mM KCl, 5.5 mM D-glucose, 4 mM NaHCO3, 0.75 mM NaHPO4·12H2O, 0.4 mM KH2PO4, 0.8 mM MgSO4·7H2O, and 1.26 mM CaCl2·2H2O, pH 6.0 adjusted with 10 mM 2-(N-morpholino)-ethanesulfonic acid). A portion (1.5 mL) of HBSS buffer (pH 6.0) was added to the apical side, and HBSS buffer (pH 7.4 adjusted with 10 mM N-2-hydroxyethylpiperazine-N′-2-ethanesulfonic acid) was added to the basolateral side. […] Monolayer integrity was evaluated by measuring TEER using a Millicell® ERS-2 Voltohmmeter (Merck KGaA, Darmstadt, Germany), and monolayers with a TEER of >300 Ω · cm^2 were included in the experiments. The apparent permeability coefficient (Papp, cm/s) was calculated as1 Pappcm/s=V/AC0×dC/dt where dC/dt is the change in concentration on the basolateral side over time (mM/s), V is the volume of solution in the basolateral compartment (1.5 mL), A is the surface area of the membrane (0.9 cm^2), and C0 is the initial concentration on the apical side (mM).
# Oligopeptides were separated at 40 °C using a linear gradient of 0.1% formic acid (FA) in MS grade water (solvent A) and 0.1% FA in acetonitrile (ACN) (solvent B) for 20 min at a flow rate of 0.2 mL/min, and an Agilent 1200 series HPLC system (Agilent Technologies Inc., Santa Clara, CA, USA) equipped with a Cosmosil 5C18-MS-II column (Φ 2.0 mm × 150 mm, Nacalai Tesque Inc., Kyoto, Japan). […] Data were analyzed using Bruker Data Analysis version 3.2 software (Bruker, Billerica, MA, USA). […]
# [1] = Plasma pharmacokinetics after a single oral dose in rats; format: in vivo, Sprague-Dawley rats
# [2] = Transport of Cblin pentapeptides across Caco-2 cell monolayers (apparent permeability); format: in vitro ADME; details: human; Caco-2 (C2BBe1) monolayers, apical to basolateral, apical HBSS pH 6.0 / basolateral HBSS pH 7.4, 1 mM peptide, 0.5% DMSO, 60 min, 37 °C, TEER >300 Ω·cm2, LC–TOF/MS, means ± SEM (n = 4–6)
# Protocol: (§1) Cell culture and transport experiment were performed as described[24],[45]. Caco-2 cells were cultured using BD BioCoat Intestinal Epithelium Differentiation Environment kits (BD Bioscience, Franklin Lakes, NJ, USA). Caco-2 cells grown in 0.9 cm^2 Falcon cell culture inserts (polyethylene terephthalate membranes; pore size, 1.0 μm; Becton Dickinson and Co.) with a type I collagen-coated membrane (Cellmatrix type IA Collagen Gel Culturing Kit; Nitta Gelatin Inc., Osaka, Japan) were gently rinsed twice with Hanks balanced salt solution (HBSS; 137 mM NaCl, 5 mM KCl, 5.5 mM D-glucose, 4 mM NaHCO3, 0.75 mM NaHPO4·12H2O, 0.4 mM KH2PO4, 0.8 mM MgSO4·7H2O, and 1.26 mM CaCl2·2H2O, pH 6.0 adjusted with 10 mM 2-(N-morpholino)-ethanesulfonic acid). A portion (1.5 mL) of HBSS buffer (pH 6.0) was added to the apical side, and HBSS buffer (pH 7.4 adjusted with 10 mM N-2-hydroxyethylpiperazine-N′-2-ethanesulfonic acid) was added to the basolateral side. After equilibration for 15 min at 37 °C, the apical buffer was replaced with fresh HBSS (pH 6.0) containing 1 mM peptide and 0.5% DMSO. Portions (60 μL) of solutions were drawn from the apical or basolateral sides at 15, 30, 45, and 60 min to determine amounts of transported peptides. Monolayer integrity was evaluated by measuring TEER using a Millicell® ERS-2 Voltohmmeter (Merck KGaA, Darmstadt, Germany), and monolayers with a TEER of >300 Ω · cm^2 were included in the experiments. The apparent permeability coefficient (Papp, cm/s) was calculated as1 Pappcm/s=V/AC0×dC/dt where dC/dt is the change in concentration on the basolateral side over time (mM/s), V is the volume of solution in the basolateral compartment (1.5 mL), A is the surface area of the membrane (0.9 cm^2), and C0 is the initial concentration on the apical side (mM).
# (§2) We investigated the involvement of PEPT1 in peptide transport by competition studies using 10 mM Gly-Sar, a PEPT1 substrate. We also investigated peptide transport over paracellular tight junctions by incubating monolayers with the tight junction opener, cytochalasin D (0.5 μg/mL) for 30 min[47] before evaluating transport.
# (§3) Oligopeptides were separated at 40 °C using a linear gradient of 0.1% formic acid (FA) in MS grade water (solvent A) and 0.1% FA in acetonitrile (ACN) (solvent B) for 20 min at a flow rate of 0.2 mL/min, and an Agilent 1200 series HPLC system (Agilent Technologies Inc., Santa Clara, CA, USA) equipped with a Cosmosil 5C18-MS-II column (Φ 2.0 mm × 150 mm, Nacalai Tesque Inc., Kyoto, Japan). The MS conditions comprised: drying gas, N2; flow rate, 8.0 L/min; drying gas temperature, 200 °C; drying gas pressure, 1.6 bar; HV capillary voltage, −4500 V; capillary exit, 70.0 V; skimmer 1, 50.0 V; hexapole 1, 23.0 V; hexapole RF, 100.0 Vpp; skimmer 2, 23.0 V; lens 1 transfer, 52.0 μs, and mass range m/z 100–1000. A calibration solution of 10 mM sodium formate in 50% ACN was injected at the beginning of each run. Data were analyzed using Bruker Data Analysis version 3.2 software (Bruker, Billerica, MA, USA). Calibration curves were prepared using 0.1–10 μM standards.
# Caco-2 cell monolayers [3] = experiment: as above; format: in vitro ADME; details: LC–TOF/MS, n = 4–6; for Effect of Gly-Sar (PEPT1 substrate) on Papp: Caco-2, 1 mM peptide with 10 mM Gly-Sar, 60 min; for Papp in monolayers incubated with cytochalasin D vs untreated membranes: Caco-2, 1 mM peptide, pre-incubation with cytochalasin D 0.5 μg/mL for 30 min, transport 60 min
# Protocol: as §1, §2, §3
# [4] = LC-TOF/MS detection of CbR-derived peptides in serum and skeletal muscle of mice fed CbR; format: in vivo, Jcl:ICR mice; details: serum of mice fed CbR diet for 14 days
# Protocol: as §3
# 31 Supplementary Figure 2. Analysis of serum collected from mice fed with Non-Tg or CbR using
# 33 Mice were handled as described in Methods. Briefly, 6-week-old male Jcl:ICR mice (Japan SLC
# 34 Inc., Shizuoka, Japan) were housed with access to a standard diet and water ad libitum. […]
# 42 specific for CbR group. ND, not detected. […]
# 60 analyzed by LC-TOF/MS under conditions described in Methods. […]
# 61 those of possible metabolites. […] ND, not detected.
# CBLB = system: CBLB; set-up: method as in 2 sources, ref 9 = [9]; PMID 26874193; doi:10.1016/j.abb.2016.02.014; 9. Ohno A Structural analysis of the TKB domain of ubiquitin ligase Cbl-b complexed with its small inhibitory peptide, Cblin Arch. Biochem. Biophys. 2016 594 1 7 10.1016/j.abb.2016.02.014 26874193 ||| ref 19 = [19]; PMID 23762056; doi:10.1155/2013/907565; 19. Abe T Soy glycinin contains a functional inhibitory sequence against muscle-atrophy-associated ubiquitin ligase Cbl-b Int. J. Endocrinol. 2013 2013 907565 907565 23762056 10.1155/2013/907565 PMC36; details: cited from earlier work
# Text: The amino acid sequence of Cblin pentapeptide was designed to inhibit interaction between CBLB and IRS1 proteins based on the ability of CBLB to recognize and bind to phosphorylated tyrosine. […] We previously elucidated the crystal structure of the TKB domain of CBLB complexed with C ...
# Caco-2 cell monolayers [5] = details: cited from earlier work
# Protocol: Basolateral solutions were sampled every 15 min for 60 min and analyzed by LC–TOF/MS. […] Therefo ...
# [6] = rat, single p.o. 50 mg/kg BW, n = 1
# [7] = rat, single p.o. 200 mg/kg BW, n = 1
molecule,measurement,setting,value
CSCC[C@H](NC(=O)[C@H](Cc1ccc(O)cc1)NC(=O)CNC(=O)[C@@H](N)CC(=O)O)C(=O)N1CCC[C@H]1C(=O)O [Asp-Gly-Tyr-Met-Pro] (H-DGYMP-OH),Resistance to peptidase degradation in Caco-2 cells,Caco-2 cells,resistant to peptidase degradation
same,half-life,"[1]; male, Sprague-Dawley, plasma, po, rat, p.o. 100 mg/kg BW, elimination half-life, n = 5",28 min
same,tmax,"[1]; male, Sprague-Dawley, plasma, po, rat, p.o. 100 mg/kg BW, n = 5, read-out: tmax (converted)",15 min
same,Metabolites found in rat plasma,"[1]; p.o. 100 mg/kg BW, plasma 30 min after administration, screened by m/z",Gly-Tyr-Met-Pro and Met-Pro
same,Cmax,"[1]; rat, p.o. 100 mg/kg BW, fasted 16 h, LC–TOF/MS with isotope-labelled internal standard, means ± SEM (n = 5)",2.78 ± 0.17 pmol/mL plasma
same,AUC0–60 min,[1]; [6],14.61 pmol ∙ min/mL plasma
same,Cmax,[1]; [6],0.79 pmol/mL plasma
same,t1/2,[1]; [6],8.99 min
same,tmax,[1]; [6],10 min
same,AUC0–60 min,[1]; [7],648.91 pmol ∙ min/mL plasma
same,Cmax,[1]; [7],27.25 pmol/mL plasma
same,t1/2,[1]; [7],5.58 min
same,tmax,[1]; [7],30 min
same,"Papp A→B at 60 min, 1 mM",[2],0.7 ± 0.08 ×10⁻⁶ cm/s
same,Effect of Gly-Sar (PEPT1 substrate) on Papp,Caco-2 cell monolayers [3],not affected
same,Papp in monolayers incubated with cytochalasin D vs untreated membranes,Caco-2 cell monolayers [3],significantly higher
CSCC[C@H](NC(=O)[C@H](Cc1ccc(OP(=O)(O)O)cc1)NC(=O)CNC(=O)[C@@H](N)CC(=O)O)C(=O)N1CCC[C@H]1C(=O)O [Asp-Gly-pTyr-Met-Pro] (H-DG[pY]MP-OH),Resistance to peptidase degradation in Caco-2 cells,Caco-2 cells,resistant to peptidase degradation
same,Dephosphorylation during Caco-2 transport,"Caco-2 cells; basolateral solution after 60 min, Asp-Gly-Tyr-Met-Pro found at an estimated concentration similar to the intact peptide",dephosphorylated
same,"Papp A→B at 60 min, 1 mM",[2],0.35 ± 0.12 ×10⁻⁶ cm/s
same,Effect of Gly-Sar (PEPT1 substrate) on Papp,Caco-2 cell monolayers [3],not affected
same,Papp in monolayers incubated with cytochalasin D vs untreated membranes,Caco-2 cell monolayers [3],significantly higher
CSCC[C@H](NC(=O)[C@H](Cc1ccc(O)cc1)NC(=O)CNC(=O)[C@H](CC(=O)O)NC(=O)[C@@H](N)CCC(N)=O)C(=O)N1CCC[C@H]1C(=O)N[C@@H](Cc1c[nH]c2ccccc12)C(=O)O [Gln-Asp-Gly-Tyr-Met-Pro-Trp] (H-QDGYMPW-OH),Uptake of intact heptapeptide into serum,[4],undetectable
Asp-Ile-Tyr-Asn-Pro [modified Cblin peptide (Cblin-like peptide from soy glycinin) with non-phosphorylated tyrosine],Effect on CBLB-mediated IRS1 ubiquitination,CBLB,suppresses
Gly-Sar-Sar-Sar-Sar [pentapeptide transport model with methylated peptide bonds],Papp,Caco-2 cell monolayers [5],"8.6 ± 0.6^a,* ×10^−7 cm/s"
same,"Papp, as given in text",Caco-2 cell monolayers [5],8.6 ×10^−7 cm/s
Gly-[pY]-Met,Effect on CBLB-mediated ubiquitination of IRS1,CBLB; in vitro,suppressive effect

# — article PMC8429733, “Oral intake of rice overexpressing ubiquitin ligase inhibitory pentapeptide prevents atrophy in denervated skeletal muscle” (NPJ Science of Food, 2021)
